Reference: ChEMBL document CHEMBL3098003, “Structure-based design of 2-aminopyridine oxazolidinones as potent and selective tankyrase inhibitors” (ACS Med Chem Lett, 2013)
pIC50: −log10 of the molar value. Active and inactive are the calls of the source. No cut-off for these calls is given here.

What was measured:
[1] = AUC in CD1 mouse at 30 mg/kg, po; format: ADME, organism-based; parameters: dose 30 mg/kg, route oral; details: plasma
[2] = Cmax in CD1 mouse at 30 mg/kg, po; format: ADME, organism-based; parameters: dose 30 mg/kg, route oral; details: in vivo
[3] = Half life in CD1 mouse at 30 mg/kg, po; format: ADME, organism-based; parameters: dose 30 mg/kg, route oral; details: in vivo
[4] = Oral bioavailability in Sprague-Dawley rat at 2 mg/kg; format: ADME, organism-based; details: in vivo
[5] = AUC in Sprague-Dawley rat at 2 mg/kg, po; format: ADME, organism-based; parameters: dose 2 mg/kg, route oral; details: plasma
[6] = Half life in Sprague-Dawley rat at 2 mg/kg, po; format: ADME, organism-based; parameters: dose 2 mg/kg, route oral; details: in vivo
[7] = Cmax in Sprague-Dawley rat at 2 mg/kg, po; format: ADME, organism-based; parameters: dose 2 mg/kg, route oral; details: in vivo
[8] = Elimination half life in Sprague-Dawley rat at 0.5 mg/kg, iv; format: ADME, organism-based; parameters: dose 0.5 mg/kg, route intravenous; details: in vivo, read-out: beta t1/2 (converted)
[9] = Clearance in Sprague-Dawley rat at 0.5 mg/kg, iv; format: ADME, organism-based; parameters: dose 0.5 mg/kg, route intravenous; details: in vivo
[10] = Volume of distribution at steady state in Sprague-Dawley rat at 0.5 mg/kg, iv; format: ADME, organism-based; parameters: dose 0.5 mg/kg, route intravenous; details: in vivo, read-out: Vdss
Salmonella typhimurium = experiment: Genotoxicity in Salmonella typhimurium by microAmes assay; format: toxicity, organism-based; details: salmonella enterica subsp. enterica serovar typhimurium
[11] = biological target: TGF-beta receptor type-2 (Homo sapiens) (UniProt P37173); experiment: Inhibition of TGFBR2 (unknown origin) at 1 uM after 1 hr
[12] = biological target: Mitogen-activated protein kinase kinase kinase 9 (Homo sapiens) (UniProt P80192); experiment: Inhibition of MAP3K9 (unknown origin) at 1 uM after 1 hr
[13] = biological target: Interleukin-1 receptor-associated kinase 4 (Homo sapiens) (UniProt Q9NWZ3); experiment: Inhibition of IRAK4 (unknown origin) at 1 uM after 1 hr
Sequence of Interleukin-1 receptor-associated kinase 4 (Homo sapiens) (Q9NWZ3 whole entry): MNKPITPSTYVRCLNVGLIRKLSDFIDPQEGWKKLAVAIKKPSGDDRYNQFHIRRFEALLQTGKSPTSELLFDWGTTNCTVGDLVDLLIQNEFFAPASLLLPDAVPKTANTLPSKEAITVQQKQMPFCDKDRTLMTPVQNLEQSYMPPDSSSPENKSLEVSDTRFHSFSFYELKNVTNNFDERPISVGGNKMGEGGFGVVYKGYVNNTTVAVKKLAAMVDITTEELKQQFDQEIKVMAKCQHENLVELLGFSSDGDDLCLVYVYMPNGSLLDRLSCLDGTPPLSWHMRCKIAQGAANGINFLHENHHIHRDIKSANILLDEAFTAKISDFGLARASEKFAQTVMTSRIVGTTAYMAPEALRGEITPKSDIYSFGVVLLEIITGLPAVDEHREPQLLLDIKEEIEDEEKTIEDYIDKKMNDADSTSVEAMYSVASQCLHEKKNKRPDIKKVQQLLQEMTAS

[14] = biological target: Non-receptor tyrosine-protein kinase TYK2 (Homo sapiens) (UniProt P29597); experiment: Inhibition of TYK2 (unknown origin) at 1 uM after 1 hr
Sequence of Non-receptor tyrosine-protein kinase TYK2 (Homo sapiens) (P29597 whole entry): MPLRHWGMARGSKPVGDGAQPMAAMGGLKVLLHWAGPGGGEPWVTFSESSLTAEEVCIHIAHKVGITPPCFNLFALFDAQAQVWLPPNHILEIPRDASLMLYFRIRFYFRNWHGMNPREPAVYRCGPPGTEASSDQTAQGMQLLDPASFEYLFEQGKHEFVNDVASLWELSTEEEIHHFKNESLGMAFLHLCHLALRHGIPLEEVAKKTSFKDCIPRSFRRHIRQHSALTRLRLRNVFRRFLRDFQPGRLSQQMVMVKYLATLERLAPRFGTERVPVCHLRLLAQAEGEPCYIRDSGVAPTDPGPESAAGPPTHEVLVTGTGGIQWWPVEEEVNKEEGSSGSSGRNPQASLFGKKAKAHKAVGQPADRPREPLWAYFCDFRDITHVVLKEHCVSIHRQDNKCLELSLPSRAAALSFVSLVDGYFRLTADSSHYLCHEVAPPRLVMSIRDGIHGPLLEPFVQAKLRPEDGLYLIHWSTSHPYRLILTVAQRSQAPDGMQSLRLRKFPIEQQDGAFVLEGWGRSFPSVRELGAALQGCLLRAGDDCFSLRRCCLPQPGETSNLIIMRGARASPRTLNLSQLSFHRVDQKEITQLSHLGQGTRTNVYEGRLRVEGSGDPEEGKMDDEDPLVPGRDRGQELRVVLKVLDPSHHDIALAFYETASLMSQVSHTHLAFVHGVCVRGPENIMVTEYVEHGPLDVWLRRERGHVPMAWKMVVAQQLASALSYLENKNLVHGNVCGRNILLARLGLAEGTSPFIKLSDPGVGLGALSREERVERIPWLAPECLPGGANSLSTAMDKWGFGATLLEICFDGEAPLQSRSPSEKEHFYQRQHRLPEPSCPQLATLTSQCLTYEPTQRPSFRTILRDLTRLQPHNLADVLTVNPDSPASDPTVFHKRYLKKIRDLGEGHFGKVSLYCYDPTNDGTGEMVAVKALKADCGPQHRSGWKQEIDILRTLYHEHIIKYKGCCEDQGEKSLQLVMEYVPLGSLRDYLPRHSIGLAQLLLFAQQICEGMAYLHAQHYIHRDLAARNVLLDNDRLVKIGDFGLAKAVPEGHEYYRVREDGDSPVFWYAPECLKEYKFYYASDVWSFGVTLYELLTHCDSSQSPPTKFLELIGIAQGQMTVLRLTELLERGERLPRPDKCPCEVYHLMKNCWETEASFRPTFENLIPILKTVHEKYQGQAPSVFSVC

[15] = biological target: Proto-oncogene tyrosine-protein kinase Src (Homo sapiens) (UniProt P12931); experiment: Inhibition of SRC (unknown origin) at 1 uM after 1 hr
Sequence of Proto-oncogene tyrosine-protein kinase Src (Homo sapiens) (P12931 2-536 limits assumed): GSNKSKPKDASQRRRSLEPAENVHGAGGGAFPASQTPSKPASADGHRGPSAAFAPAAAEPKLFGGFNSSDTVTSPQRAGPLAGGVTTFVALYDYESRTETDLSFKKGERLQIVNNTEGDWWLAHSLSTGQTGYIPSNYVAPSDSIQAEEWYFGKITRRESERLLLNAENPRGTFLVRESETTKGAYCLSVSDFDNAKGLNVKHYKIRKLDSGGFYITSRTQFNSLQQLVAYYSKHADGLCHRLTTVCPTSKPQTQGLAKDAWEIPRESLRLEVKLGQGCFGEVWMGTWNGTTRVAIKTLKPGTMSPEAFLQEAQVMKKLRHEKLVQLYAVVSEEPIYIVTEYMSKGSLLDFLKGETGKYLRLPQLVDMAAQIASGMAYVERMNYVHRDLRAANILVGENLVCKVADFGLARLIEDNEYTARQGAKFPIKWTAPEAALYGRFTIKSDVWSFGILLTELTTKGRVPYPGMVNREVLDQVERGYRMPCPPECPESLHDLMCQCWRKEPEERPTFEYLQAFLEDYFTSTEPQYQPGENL

[16] = biological target: High affinity nerve growth factor receptor (Homo sapiens) (UniProt P04629); experiment: Inhibition of NTRK1 (unknown origin) at 1 uM after 1 hr
[17] = biological target: Tyrosine-protein kinase Lck (Homo sapiens) (UniProt P06239); experiment: Inhibition of LCK (unknown origin) at 1 uM after 1 hr
[18] = biological target: Tyrosine-protein kinase JAK2 (Homo sapiens) (UniProt O60674); experiment: Inhibition of JAK2 (unknown origin) at 1 uM after 1 hr
[19] = biological target: Tyrosine-protein kinase Fyn (Homo sapiens) (UniProt P06241); experiment: Inhibition of FYN (unknown origin) at 1 uM after 1 hr
[20] = biological target: Ephrin type-B receptor 3 (Homo sapiens) (UniProt P54753); experiment: Inhibition of EPHB3 (unknown origin) at 1 uM after 1 hr
[21] = biological target: Epithelial discoidin domain-containing receptor 1 (Homo sapiens) (UniProt Q08345); experiment: Inhibition of DDR1 (unknown origin) at 1 uM after 1 hr relative to control
[22] = biological target: Tyrosine-protein kinase ABL1 (Homo sapiens) (UniProt P00519); experiment: Inhibition of ABL1 (unknown origin) at 1 uM after 1 hr
[23] = biological target: Serine/threonine-protein kinase 3 (Homo sapiens) (UniProt Q13188); experiment: Inhibition of STK3 (unknown origin) at 1 uM after 1 hr
[24] = biological target: Mitogen-activated protein kinase kinase kinase kinase 4 (Homo sapiens) (UniProt O95819); experiment: Inhibition of MAP4K4 (unknown origin) at 1 uM after 1 hr
[25] = biological target: Mitogen-activated protein kinase kinase kinase 1 (Homo sapiens) (UniProt Q13233); experiment: Inhibition of MAP3K1 (unknown origin) at 1 uM after 1 hr
[26] = biological target: Wee1-like protein kinase (Homo sapiens) (UniProt P30291); experiment: Inhibition of WEE1 (unknown origin) at 1 uM after 1 hr
[27] = biological target: Serine/threonine-protein kinase PLK4 (Homo sapiens) (UniProt O00444); experiment: Inhibition of PLK4 (unknown origin) at 1 uM after 1 hr
[28] = biological target: Serine/threonine-protein kinase Nek4 (Homo sapiens) (UniProt P51957); experiment: Inhibition of NEK4 (unknown origin) at 1 uM after 1 hr
[29] = biological target: Interferon-induced, double-stranded RNA-activated protein kinase (Homo sapiens) (UniProt P19525); experiment: Inhibition of EIF2AK2 (unknown origin) at 1 uM after 1 hr
Sequence of Interferon-induced, double-stranded RNA-activated protein kinase (Homo sapiens) (P19525 whole entry, canonical isoform): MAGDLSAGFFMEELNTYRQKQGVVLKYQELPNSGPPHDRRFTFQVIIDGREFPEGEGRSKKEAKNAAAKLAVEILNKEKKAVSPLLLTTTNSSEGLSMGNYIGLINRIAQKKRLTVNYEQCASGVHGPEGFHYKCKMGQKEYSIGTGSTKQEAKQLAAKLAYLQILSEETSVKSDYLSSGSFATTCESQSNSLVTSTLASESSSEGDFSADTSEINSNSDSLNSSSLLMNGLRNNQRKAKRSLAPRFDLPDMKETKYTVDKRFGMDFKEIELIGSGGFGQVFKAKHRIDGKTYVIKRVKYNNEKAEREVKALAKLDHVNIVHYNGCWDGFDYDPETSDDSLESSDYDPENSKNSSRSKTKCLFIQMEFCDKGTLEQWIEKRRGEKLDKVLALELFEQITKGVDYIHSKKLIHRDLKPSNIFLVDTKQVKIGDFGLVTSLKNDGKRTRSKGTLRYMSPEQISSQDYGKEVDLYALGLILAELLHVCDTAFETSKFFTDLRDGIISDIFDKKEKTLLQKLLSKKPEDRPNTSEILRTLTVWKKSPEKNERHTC

[30] = biological target: Phosphatidylinositol 4,5-bisphosphate 3-kinase catalytic subunit delta isoform (Homo sapiens) (UniProt O00329); experiment: Inhibition of PIK3CD (unknown origin) at 1 uM after 1 hr
[31] = biological target: Mitogen-activated protein kinase 14 (Homo sapiens) (UniProt Q16539); experiment: Inhibition of MAPK14 (unknown origin) at 1 uM after 1 hr
Sequence of Mitogen-activated protein kinase 14 (Homo sapiens) (Q16539 whole entry): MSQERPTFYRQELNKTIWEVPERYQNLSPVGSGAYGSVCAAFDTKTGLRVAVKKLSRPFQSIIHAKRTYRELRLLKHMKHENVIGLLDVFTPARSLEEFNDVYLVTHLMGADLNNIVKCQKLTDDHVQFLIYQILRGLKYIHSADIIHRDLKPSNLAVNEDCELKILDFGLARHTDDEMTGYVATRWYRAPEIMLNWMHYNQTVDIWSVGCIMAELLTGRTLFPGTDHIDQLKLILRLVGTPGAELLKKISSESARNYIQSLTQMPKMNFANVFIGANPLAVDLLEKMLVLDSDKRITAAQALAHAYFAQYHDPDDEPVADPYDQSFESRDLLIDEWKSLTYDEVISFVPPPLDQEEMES

[32] = biological target: Homeodomain-interacting protein kinase 1 (Homo sapiens) (UniProt Q86Z02); experiment: Inhibition of HIPK1 (unknown origin) at 1 uM after 1 hr
[33] = biological target: Dual specificity protein kinase CLK4 (Homo sapiens) (UniProt Q9HAZ1); experiment: Inhibition of CLK4 (unknown origin) at 1 uM after 1 hr
[34] = biological target: Cyclin-dependent kinase 2 (Homo sapiens) (UniProt P24941); experiment: Inhibition of CDK2 (unknown origin) at 1 uM after 1 hr
[35] = biological target: Casein kinase I isoform delta (Homo sapiens) (UniProt P48730); experiment: Inhibition of CSNK1D (unknown origin) at 1 uM after 1 hr
[36] = biological target: Serine/threonine-protein kinase D2 (Homo sapiens) (UniProt Q9BZL6); experiment: Inhibition of PRKD2 (unknown origin) at 1 uM after 1 hr
Sequence of Serine/threonine-protein kinase D2 (Homo sapiens) (Q9BZL6 whole entry): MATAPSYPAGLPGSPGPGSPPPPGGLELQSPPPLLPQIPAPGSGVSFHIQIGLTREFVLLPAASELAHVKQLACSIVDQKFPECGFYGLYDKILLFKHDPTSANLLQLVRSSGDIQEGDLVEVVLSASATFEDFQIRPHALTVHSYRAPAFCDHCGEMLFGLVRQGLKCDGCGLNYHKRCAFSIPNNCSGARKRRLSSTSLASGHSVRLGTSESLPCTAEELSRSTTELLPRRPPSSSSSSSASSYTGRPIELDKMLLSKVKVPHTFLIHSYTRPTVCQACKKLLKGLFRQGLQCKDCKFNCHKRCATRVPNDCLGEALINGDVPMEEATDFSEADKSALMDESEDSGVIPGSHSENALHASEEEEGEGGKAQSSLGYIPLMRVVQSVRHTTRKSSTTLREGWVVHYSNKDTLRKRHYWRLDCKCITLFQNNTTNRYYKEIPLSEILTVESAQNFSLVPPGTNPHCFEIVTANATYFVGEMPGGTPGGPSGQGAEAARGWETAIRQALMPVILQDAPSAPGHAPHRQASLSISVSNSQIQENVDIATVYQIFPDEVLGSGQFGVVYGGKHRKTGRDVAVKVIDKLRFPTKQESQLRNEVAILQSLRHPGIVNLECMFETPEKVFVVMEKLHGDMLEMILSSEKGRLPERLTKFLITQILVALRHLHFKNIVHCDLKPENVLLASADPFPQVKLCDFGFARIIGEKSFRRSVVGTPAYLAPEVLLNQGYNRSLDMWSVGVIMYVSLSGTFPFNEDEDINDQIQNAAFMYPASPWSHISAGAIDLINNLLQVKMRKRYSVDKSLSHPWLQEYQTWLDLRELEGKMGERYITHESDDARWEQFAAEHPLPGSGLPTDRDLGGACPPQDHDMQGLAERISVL

[37] = biological target: MAP kinase-interacting serine/threonine-protein kinase 1 (Homo sapiens) (UniProt Q9BUB5); experiment: Inhibition of MKNK1 (unknown origin) at 1 uM after 1 hr
[38] = biological target: Death-associated protein kinase 1 (Homo sapiens) (UniProt P53355); experiment: Inhibition of DAPK1 (unknown origin) at 1 uM after 1 hr
[39] = biological target: Calcium/calmodulin-dependent protein kinase type II subunit delta (Homo sapiens) (UniProt Q13557); experiment: Inhibition of CAMK2D (unknown origin) at 1 uM after 1 hr
[40] = biological target: Ribosomal protein S6 kinase alpha-1 (Homo sapiens) (UniProt Q15418); experiment: Inhibition of RPS6KA1 (unknown origin) at 1 uM after 1 hr
Sequence of Ribosomal protein S6 kinase alpha-1 (Homo sapiens) (Q15418 whole entry): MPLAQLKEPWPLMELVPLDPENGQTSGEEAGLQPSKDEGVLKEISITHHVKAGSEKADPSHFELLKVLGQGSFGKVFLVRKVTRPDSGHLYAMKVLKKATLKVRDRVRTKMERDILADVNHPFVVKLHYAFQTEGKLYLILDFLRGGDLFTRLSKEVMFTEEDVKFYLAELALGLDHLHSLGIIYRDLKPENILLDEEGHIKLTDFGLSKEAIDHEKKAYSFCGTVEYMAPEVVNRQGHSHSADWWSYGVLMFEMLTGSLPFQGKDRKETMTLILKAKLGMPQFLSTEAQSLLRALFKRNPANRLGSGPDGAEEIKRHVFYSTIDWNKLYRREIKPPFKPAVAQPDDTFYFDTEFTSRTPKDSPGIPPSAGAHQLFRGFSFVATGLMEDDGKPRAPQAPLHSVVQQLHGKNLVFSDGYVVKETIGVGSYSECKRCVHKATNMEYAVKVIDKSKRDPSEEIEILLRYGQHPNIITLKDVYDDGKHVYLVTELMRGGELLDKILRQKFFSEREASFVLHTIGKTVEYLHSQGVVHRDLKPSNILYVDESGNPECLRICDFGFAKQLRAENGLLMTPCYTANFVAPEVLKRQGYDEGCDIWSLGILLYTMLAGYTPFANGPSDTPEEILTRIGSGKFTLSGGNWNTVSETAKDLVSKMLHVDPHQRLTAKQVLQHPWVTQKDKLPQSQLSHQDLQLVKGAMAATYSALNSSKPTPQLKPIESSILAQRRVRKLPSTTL

[41] = biological target: Rho-associated protein kinase 2 (Homo sapiens) (UniProt O75116); experiment: Inhibition of ROCK2 (unknown origin) at 1 uM after 1 hr
[42] = biological target: cAMP-dependent protein kinase catalytic subunit alpha (Homo sapiens) (UniProt P17612); experiment: Inhibition of PRKACA (unknown origin) at 1 uM after 1 hr
[43] = biological target: Poly [ADP-ribose] polymerase 2 (Homo sapiens, UniProt Q9UGN5); experiment: Inhibition of PARP2 (unknown origin)
[44] = biological target: Poly [ADP-ribose] polymerase 1 (Homo sapiens, UniProt P09874); experiment: Inhibition of PARP1 (unknown origin)

CC1(C)OC(=O)N(c2ccc(-c3cnc(N)c(-c4ncccn4)c3)cc2)[C@H]1c1ccccc1
AUC [1]: 63.3 µM·h
Cmax [2]: 7.88 µM
half-life [3]: 222 min
bioavailability [4]: 29%
AUC [5]: 2.71 µM·h
half-life [6]: 276 min
Cmax [7]: 370 nM
half-life [8]: 258 min
clearance [9]: 8.67 mL/min/kg
Vd [10]: 2.32 L/kg
Activity (Salmonella typhimurium): Toxic
inhibition [11]: inactive
inhibition [12]: inactive
inhibition [13]: inactive
inhibition [14]: inactive
inhibition [15]: inactive
inhibition [16]: inactive
inhibition [17]: inactive
inhibition [18]: inactive
inhibition [19]: inactive
inhibition [20]: inactive
inhibition [21]: inactive
inhibition [22]: inactive
inhibition [23]: inactive
inhibition [24]: inactive
inhibition [25]: inactive
inhibition [26]: inactive
inhibition [27]: inactive
inhibition [28]: inactive
inhibition [29]: inactive
inhibition [30]: inactive
inhibition [31]: inactive
inhibition [32]: inactive
inhibition [33]: inactive
inhibition [34]: inactive
inhibition [35]: inactive
inhibition [36]: inactive
inhibition [37]: inactive
inhibition [38]: inactive
inhibition [39]: inactive
inhibition [40]: inactive
inhibition [41]: inactive
inhibition [42]: inactive
pIC50 [43]: < 3.77
pIC50 [44]: < 4.07

CC1(C)OC(=O)N([C@H]2CC[C@H](c3cnc(N)c(-c4ncccn4)c3)CC2)[C@H]1c1ccccc1
AUC [1]: 36.3 µM·h
Cmax [2]: 6.09 µM
half-life [3]: 210 min
bioavailability [4]: 33%
AUC [5]: 1.98 µM·h
half-life [6]: 174 min
Cmax [7]: 450 nM
half-life [8]: 216 min
clearance [9]: 12.5 mL/min/kg
Vd [10]: 2.85 L/kg
Activity (Salmonella typhimurium): Non-toxic
inhibition [11]: inactive
inhibition [12]: inactive
inhibition [13]: inactive
inhibition [14]: inactive
inhibition [15]: inactive
inhibition [16]: inactive
inhibition [17]: inactive
inhibition [18]: inactive
inhibition [19]: inactive
inhibition [20]: inactive
inhibition [21]: 18%
inhibition [22]: inactive
inhibition [23]: inactive
inhibition [24]: inactive
inhibition [25]: inactive
inhibition [26]: inactive
inhibition [27]: inactive
inhibition [28]: inactive
inhibition [29]: inactive
inhibition [30]: inactive
inhibition [31]: inactive
inhibition [32]: inactive
inhibition [33]: inactive
inhibition [34]: inactive
inhibition [35]: inactive
inhibition [36]: inactive
inhibition [37]: inactive
inhibition [38]: inactive
inhibition [39]: inactive
inhibition [40]: inactive
inhibition [41]: inactive
inhibition [42]: inactive
pIC50 [43]: < 3.77
pIC50 [44]: < 4.07
